A short description of data set [1]: Analytical RP-HPLC retention time on C-18 column as indicator of polarity. The note with it: chromatographic, YMC-Pack ODS-A C18 (5 µm, 120 Å) 150 × 4.6 mm; gradient 5% B 2 min, 5%–100% B 20 min; A 0.1% TFA in water, B 0.1% TFA in acetonitrile/water 80/20; 1 mL/min; UV 220 nm. The class given is physicochemical. The source says: Cationic membrane active peptides and their INH-derivatives were synthesized in good yields, using previously described methods. Peptides were characterized with their monoisotopic molecular mass (M), retention time on a C-18 RP-HPLC column (Rt), estimated hydrophilicity values (H) and net charge (z) (see Table 1). Peptides are listed according to their retention times, which are the indicator of their polarity. […] This order of peptides’ polarity is almost equal to the relative hydrophilicity estimated from the amino acid composition. […] That might be the result of decreased charge due to INH coupling at the N-terminal, although the addition of INH molecule is expected to increase the polarity of the conjugate.
Purified peptides were analyzed by RP-HPLC, on an analytical C-18 column, using gradient elution with the abovementioned eluent A and B (flow rate was 1 mL/min, UV detection at λ = 220 nm). Molecular mass of the peptides was determined on a Thermo Scientific Q Exactive™ Focus Hybrid Quadrupole-Orbitrap™ Mass Spectrometer (ThermoFisher Scientific, Waltham, MA, USA).

Data set [2] is described as follows: AFM imaging of penetrated DPPC lipid layer. The class given is physicochemical. The following applies: DPPC monolayer, AFM cross-section profiles. The source says:
At the end of the membrane affinity measurements, the penetrated monolayers were transferred to a previously cleaned cover glass, to study the structural changes of the membranes by atomic force microscopy (Figure 5 and Figure 6). The surface of the original DPPC and mixed DPPC+mycolic acid monolayer is rather smooth, with a morphology described by typical roughness values presented in Table 2. (Ra is the average deviation of all points from a mean level over the evaluation area. Rq (RMS) is the root mean square roughness, while Rz is the average absolute value of the five highest peaks and the five lowest valleys over the evaluation area, being sensitive to positive or negative extremes of the image.) Well-defined homogenous lipid islands are formed by the ordered lipid molecules in equilibrium with the less-oriented film with smaller surface density as expected from the surface pressure–area isotherm. Comparing to this, the morphology of the penetrated monolayers was changed. The 3D images provide a visual impression on the surface, while the cross-section profiles allow the measurement of the height differences. […] This morphological change can also be expressed by the roughness factors determined by analyzing the AFM images (Table 2).
Penetrated Langmuir monolayers were transferred to a previously cleaned hydrophilic cover glass for atomic microscopy measurements. […]

A short description of data set [3]: AFM imaging of penetrated DPPC+mycolic acid lipid layer. The class given is physicochemical. The following applies: DPPC+mycolic acid film, AFM cross-section profiles.
The subject of data set [4] is Mycobacterium tuberculosis H37Rv in infected MonoMac-6 human monocytes. The class given is cell-based.
The test system of data set [5] is EBC-1 cells. The class given is cell-based, human.

Where two headings read alike, the source gives them in different places.

These results are taken from paper PMC7139830, “Drug Conjugation Induced Modulation of Structural and Membrane Interaction Features of Cationic Cell-Permeable Peptides” (International Journal of Molecular Sciences, 2020).

On to CM15, for which the “Rt, retention time on C-18 RP-HPLC column (indicator of polarity)” value (“Rt, retention time” for short) in data set [1] came to 13.7.
For “GIGKFLHSAKKFGKAFVGEIMNS [Magainin II, antimicrobial peptide isolated from amphibians]”, in data set [1], the “Rt, retention time” value amounted to 12.8.
In the case of “INH-GIGKFLHSAKKFGKAFVGEIMNS [INH–Magainin II, isoniazid conjugated to the N-terminus of Magainin II via glyoxylic acid linker]”, in data set [1], the “Rt, retention time” value is listed as 13.3.
The same measure, in the same setting: in the case of “INH-KRLFKKLLFSLRKY [INH–Dhvar4, isoniazid conjugated to the N-terminus of Dhvar4 via glyoxylic acid linker]” it was 12.8; in that of “INH-RAGLQFPVGRVHRLLRK [INH–Buforin II (5–21), isoniazid conjugated to the N-terminus of Buforin II (5–21) via glyoxylic acid linker]”, 11.0.
As to “INH-RQIKIWFQNRRMKWKK [INH–Penetratin, isoniazid conjugated to the N-terminus of Penetratin via glyoxylic acid linker]”, the “Rt, retention time” value in data set [1] amounted to 11.5. Besides, the “Height of aggregates / protrusions in penetrated layer” value in data set [2] is reported as 1–3 nm. For the same substance, the “Height of aggregates / vertical deviation in penetrated layer” value in data set [3] is listed as “exceeding 3 nm”. Moreover, the Intracellular antitubercular activity result in data set [4] is “efficient candidate against intracellular Mycobacterium tuberculosis”.
For “INH-TKPKGTKPKGTKPKGTKPKG [INH–OT20, isoniazid conjugated to the N-terminus of OT20 via glyoxylic acid linker]”, the “Rt, retention time” value in data set [1] came out at 7.0.
With “KRLFKKLLFSLRKY [Dhvar4, synthetic derivative of Histatin, a salivary histidine-rich cationic AMP]”, in data set [1], the “Rt, retention time” value stood at 11.8.
Take “RAGLQFPVGRVHRLLRK [Buforin II (5–21), antimicrobial peptide isolated from amphibians]”: the “Rt, retention time” value in data set [1] is 10.9.
On to “RQIKIWFQNRRMKWKK [Penetratin, cell-penetrating peptide]”, for which, in data set [1], the “Rt, retention time” value is listed as 10.9. Besides, the Subcellular localization entry in data set [5] (Cf-labeled peptides, 60 min incubation, EBC-1 cells, confocal microscopy) was “diffused intracellular distribution”.
As to “TKPKGTKPKGTKPKGTKPKG [OT20, synthetic oligomer of Tuftsin, cationic carrier peptide]”, the “Rt, retention time” value in data set [1] stood at 6.7.
Turning to Transportan, in data set [5], the Subcellular localization entry is on record as “mostly vesicular localization”.
